Patent publication US9708628B2, “Cationic lipid having improved intracellular kinetics” (NOF CORPORATION, priority 2011, dated 2017)
Entries after “also recorded” stand apart in the source; their conditions may differ.

How the values were obtained:
[1] = Liposome destabilization test in reductive environment (DTT, TNS fluorescence); format: physicochemical; conditions: 10 mM DTT, 37° C., 0-24 hr; TNS at pH 4.0
Protocol: DTT was added to various MEND solutions to a final concentration of 10 mM and the mixtures were stood at 37° C. The fluorescence intensity was measured using TNS (6-(p-Toludino)-2-Naphthalene Sulfonic acid) at the time points of 0, 1, 2, 4, 8, 24 hr later. The MEND solutions were diluted to 0.5 mM. The 0.5 mM MEND solution (12 μL), 20 mM citrate buffer (186 μL, containing 150 mM NaCl, acidic pH (pH 4.0)), and 0.6 mM TNS (2 μL) were added to a 96-well plate for fluorescence measurement (Nunc), and the fluorescence intensity was measured at excitation wavelength 321 nm, detection wavelength 447 nm, at 37° C. As a control, MEND solution added with the same amount of 10 mM HEPES buffer free of DTT at 0 hr and stood for each time at 37° C. was used, and the fluorescence intensity was measured using TNS by the same treatment. The fluorescence intensity under reductive environment was divided by the fluorescence intensity of the control and used as an index of the destabilization of lipid membrane.
As a result, attenuation of TNS fluorescence due to the DTT treatment was not observed in DODAP and B-2-1 not having a disulfide bond. […] TNS is adsorbed, under an acidic environment of pH 4.0, to a particle surface having a positive surface potential via electrostatically interactions, and emits fluorescence according to the liposoluble environment of the lipid structure part of a liposome.

Factor VII (FVII) = assay: Knockdown effect of siRNA-encapsulated MEND (plasma FVII); format: in vivo, ICR mice; conditions: 3 mg siRNA/kg, tail vein, 24 hr
Protocol: (§1) A siRNA solution and protamine (CALBIOCHEM) solution were diluted with 10 mM HEPES buffer (pH 5.3) to 0.3 mg/mL and 0.2 mg/mL, respectively. While stirring 0.3 mg/mL siRNA solution (250 μL), 0.2 mg/mL protamine solution (250 μL) was added dropwise in small portions to prepared an electrostatic complex of siRNA and protamine (N/P ratio=1.0) as a core of the vector.
As a siRNA sequence for Factor VII (FVII), one described in Akinc et al, Molecular Therapy, 17(5) 872-879 (2009), which was free of chemical modification, was used.
(§2) A lipid solution in ethanol was mixed at a ratio of B-2:SOPE:Chol=5:3:2 for B-2 MEND (Example 1), at a ratio of B-2-4:DOPE:Chol=3:3:4 for B-2-4 MEND (Example 4), and at a ratio of B-2-5:POPE:Chol=3:4:3 for B-2-5 MEND (Example 5), to a total lipid of 660 nmol in a 5 mL tube. Further, PEG2000-DMG was added as PEG lipid in an amount equivalent to 3 mol % of the total lipid, and ethanol was added to a total volume of 400 μL each. While stirring the lipid solution by a vortex mixer, a solution (400 μL) of a nucleic acid electrostatic complex composed of siRNA/protamine prepared in [Experimental Example 27] was mixed, then 10 mM HEPES buffer (pH 5.3, 2.4 mL) was quickly added, and the mixture was vigorously stirred. The mixture was subjected to centrifugal ultrafiltration using Amicon Ultra-15 100K device (Millipore) at 1000 g, 10 min, 30° C. The mixture was sufficiently diluted with 10 mM HEPES buffer (pH 7.4), and again subjected to centrifugal ultrafiltration. This solution was adjusted to an object lipid concentration with 10 mM HEPES buffer (pH 7.4).
A MEND solution prepared by the method shown in [Experimental Example 28] was administered to 4-week-old male ICR mice at 3 mg siRNA/kg from the tail vein, and blood was collected 24 hr later. This blood sample was centrifuged at 1000 g, 10 min, 4° C., and the supernatant was recovered to obtain plasma. The amount of Factor VII (FVII) in the plasma was quantified by BIOPHEN FVII CHROMOGENIC ASSAY (HYPHEN BioMed).

[2] = Particle size and surface potential of siRNA-encapsulated MEND (ethanol dilution method); format: physicochemical; conditions: siRNA/protamine MEND, PEG2000-DMG 3 mol %
Protocol: as §1, §2
The particle size and surface potential were measured using the dynamic light scattering method (Zetasizer Nano; Malvern). The particle size and surface potential of various MENDs prepared by the preparation method of [Experimental Example 28] are shown in Table 5.

HT1080 cells = assay: Intracellular kinetics (nuclear transport), confocal microscopy; format: cell-based; conditions: 3 hr after transfection
Source text: For MEND preparation, Rhodamine-labeled pDNA prepared by the method of [Experimental Example 1] (4) was used. For preparation of MEND encapsulating the rhodamine-labeled pDNA, the pDNA solution described in [Experimental Example 1] (1) was completely replaced by rhodamine-labeled pDNA. In addition, the lipid constituting MEND was labeled with fluorescence by the method described in [Experimental Example 1] (3). MENDs having a composition of B-2-4 (Example 4):DOPE:Chol=3:3:4, B-2 (Example 1):SOPE:Chol=5:3:2 were prepared by the method described in [Experimental Example 1] (2). For the preparation, PEG2000-DMG was used as PEG lipid, and MEND solutions corresponding to 0.55 mM of the lipid concentration were prepared.
HT1080 cells were plated on a glass bottom dish at 5×10^4 cells/2 mL/dish 24 hr before. MEND was diluted with DMEM (FBS 10%+) to achieve pDNA 1.6 μg/2 mL and transfected into cells. After 3 hr, hoechst33342 (1 μL) was added and, 10 min later, the cells were washed twice with heparin solution (20 units/mL, 2 mL). Krebs buffer (1 mL) was added, and the image was obtained by a confocal laser scan microscope.

SMILES	attenuation of TNS fluorescence due to DTT treatment (destabilization of lipid membrane) [1]	FVII expression level in plasma (knockdown effect) (Factor VII (FVII))	PDI [2]	size (nm) [2] [nm]	zeta (mV) [2] [mV]	intracellular localization (HT1080 cells)
CCCCCCCC/C=C\CCCCCCCC(=O)OCC(CN(C)C)OC(=O)CCCCCCC/C=C\CCCCCCCC (centres unmarked) [DODAP, reference compound]	not observed					
Cc1c(C)c2c(c(C)c1OC(=O)CCC(=O)OCCCN(C)CCSSCCN(C)CCCOC(=O)CCC(=O)Oc1c(C)c(C)c3c(c1C)CCC(C)(CCCC(C)CCCC(C)CCCC(C)C)O3)CCC(C)(CCCC(C)CCCC(C)CCCC(C)C)O2 (centres unmarked) [Example B-2-5]		decrease in the FVII expression level as compared to the non-treatment group; also recorded: greatest knockdown effect	0.13	218	−9.1	
CCCCCCCCCCCCCC(=O)OCCCN(C)CCSSCCN(C)CCCOC(=O)CCCCCCCCCCCCC [Example B-2]	disappearance of TNS fluorescence in a time-dependent manner	decrease in the FVII expression level as compared to the non-treatment group	0.07	186	−1.7	diffused in the cell
CCCCCCCCCCCCCC(=O)OCCCN(C)CCCCCCN(C)CCCOC(=O)CCCCCCCCCCCCC [Example B-2-1, reference compound]	not observed					
CC1=C(/C=C/C(C)=C/C=C/C(C)=C/C(=O)OCCCN(C)CCSSCCN(C)CCCOC(=O)/C=C(C)/C=C/C=C(C)/C=C/C2=C(C)CCCC2(C)C)C(C)(C)CCC1 [Example B-2-4]		decrease in the FVII expression level as compared to the non-treatment group	0.11	186	−5.1	accumulate near the nucleus
